Patent US8449896B2, “Pharmaceutical composition having improved solubility” (Daiichi Sankyo Company, Limited, priority 2009, dated 2013)

Test: solubility of compound I in aqueous solutions
Assay type: physicochemical

CN1CCc2nc(C(=O)N[C@@H]3C[C@@H](C(=O)N(C)C)CC[C@@H]3NC(=O)C(=O)Nc3ccc(Cl)cn3)sc2C1 [compound I, N^1-(5-chloropyridin-2-yl)-N^2-((1S,2R,4S)-4-[(dimethylamino)carbonyl]-2-{[(5-methyl-4,5,6,7-tetrahydrothiazolo[5,4-c]pyridin-2-yl)carbonyl]amino}cyclohexyl)ethanediamide]
solubility in a neutral aqueous solution (neutral aqueous solution (e.g., a neutral buffer)): reduced solubility | solubility in a strongly acidic aqueous solution (strongly acidic aqueous solution): favorable solubility
